# Results from patent US20060009478A1, “Methods for the treatment of back pain” (priority 2003, published 2006).
# Tested on: patients with moderate to severe chronic low back pain
# Assay: Pain intensity (daily diary, 11-point numerical scale), low back pain study with titration and 12-week fixed-dose period
# Type: in vivo, human
# Conditions: LOCF, ITT
# Method: A multicenter, randomized, double-blind, active- and placebo-controlled study was designed and conducted.
# In addition, adverse events and opioid-related adverse events were to be recorded in the daily diary.
# For the pain intensity (PI) scale assessment, the patient was prompted with the question “How would you rate your overall pain intensity at this time?” and the PI score was recorded in the clinic at the Screening and Baseline Visits. Pain intensity was also assessed by prompting the patient with the questions “How would you rate your overall pain intensity during the past 24 hours?” and a daily PI diary score was recorded at bedtime. For both Pain Intensity prompts, the response was scored on an 11-point numerical scale (0=no pain and 10=severe pain).
# The baseline average daily pain intensity score for each patient was calculated as the average of the daily bedtime pain intensity scores recorded during the 3 days immediately prior to baseline/start of titration period visit. The post-baseline average daily pain intensity scores were calculated as the average of the daily bedtime pain intensity scores recorded during the last 3 days of dosing prior to each visit. Missing data was imputed using the last-observation-carried-forward (LOCF) approach for efficacy variables in the fixed-dose period. If the first visit in the fixed-dose period was missing, the last value in the titration period was imputed forward. Unless indicated, all testing of statistical significance was two-sided, and a difference resulting in a p-value of equal to or less than 0.05 was considered statistically significant.
# A primary efficacy endpoint was the percent change from baseline to the end of the fixed-dose period (Week 12) in average daily pain intensity. The percent change from baseline was calculated as [PI(baseline)−PI(fixed-dose)]/PI(baseline)*100. Data was summarized descriptively by treatment group. An analysis of covariance (ANCOVA) model including treatment and center as effects and baseline pain intensity as the covariate was used for global and pairwise inferences. Separate models were used to evaluate both the treatment by center and treatment by baseline pain intensity interaction terms.
# A primary comparison of interest was oxycodone and naltrexone (e.g., BID or QID) versus oxycodone (e.g., QID). Secondary analyses included actual and percent change from baseline values of daily pain index, SF-12, and Oswestry disability index summarized descriptively by treatment group for both the titration and fixed-dose periods. Treatments were compared globally and in pairwise fashion at each visit in the fixed-dose period using an ANCOVA model that included treatment and center as effects and baseline pain intensity as the covariate. Separate models were used to evaluate both the treatment by center and treatment by baseline pain intensity interaction terms.
structure (smiles),measurement,setting,value
"COc1ccc2c3c1O[C@H]1C(=O)CC[C@@]4(O)[C@@H](C2)N(C)CC[C@]314 [OXY QID, oxycodone]","Pain intensity actual value at fixed dose week 7, maximum",fixed dose week 7,10.0
same,"Pain intensity actual value at fixed dose week 7, mean (SD)",fixed dose week 7,4.0 (2.54)
same,"Pain intensity actual value at fixed dose week 7, median",fixed dose week 7,3.3
same,"Pain intensity actual value at fixed dose week 7, minimum",fixed dose week 7,0.0
same,"Pain intensity change from baseline to fixed dose week 7, maximum",fixed dose week 7,3.0
same,"Pain intensity change from baseline to fixed dose week 7, mean (SD)",fixed dose week 7,−3.6 (2.69)
same,"Pain intensity change from baseline to fixed dose week 7, median",fixed dose week 7,−4.0
same,"Pain intensity change from baseline to fixed dose week 7, minimum",fixed dose week 7,−9.7
same,"Pain intensity percent change from baseline to fixed dose week 7, maximum",fixed dose week 7,42.9%
same,"Pain intensity percent change from baseline to fixed dose week 7, mean (SD)",fixed dose week 7,−46.8 (34.05) %
same,"Pain intensity percent change from baseline to fixed dose week 7, median",fixed dose week 7,−52.9%
same,"Pain intensity percent change from baseline to fixed dose week 7, minimum",fixed dose week 7,−100.0%
same,"Pain intensity actual value at fixed dose week 8, maximum",fixed dose week 8,10.0
same,"Pain intensity actual value at fixed dose week 8, mean (SD)",fixed dose week 8,4.0 (2.57)
same,"Pain intensity actual value at fixed dose week 8, median",fixed dose week 8,3.3
same,"Pain intensity actual value at fixed dose week 8, minimum",fixed dose week 8,0.0
same,"Pain intensity change from baseline to fixed dose week 8, maximum",fixed dose week 8,3.0
same,"Pain intensity change from baseline to fixed dose week 8, mean (SD)",fixed dose week 8,−3.6 (2.67)
same,"Pain intensity change from baseline to fixed dose week 8, median",fixed dose week 8,−3.7
same,"Pain intensity change from baseline to fixed dose week 8, minimum",fixed dose week 8,−9.7
same,"Pain intensity percent change from baseline to fixed dose week 8, maximum",fixed dose week 8,42.9%
same,"Pain intensity percent change from baseline to fixed dose week 8, mean (SD)",fixed dose week 8,−46.5 (34.05) %
same,"Pain intensity percent change from baseline to fixed dose week 8, median",fixed dose week 8,−52.4%
same,"Pain intensity percent change from baseline to fixed dose week 8, minimum",fixed dose week 8,−100.0%
same,"Pain intensity actual value at fixed dose week 9, maximum",fixed dose week 9,10.0
same,"Pain intensity actual value at fixed dose week 9, mean (SD)",fixed dose week 9,3.9 (2.57)
same,"Pain intensity actual value at fixed dose week 9, median",fixed dose week 9,3.3
same,"Pain intensity actual value at fixed dose week 9, minimum",fixed dose week 9,0.0
same,"Pain intensity change from baseline to fixed dose week 9, maximum",fixed dose week 9,3.0
same,"Pain intensity change from baseline to fixed dose week 9, mean (SD)",fixed dose week 9,−3.6 (2.70)
same,"Pain intensity change from baseline to fixed dose week 9, median",fixed dose week 9,−4.0
same,"Pain intensity change from baseline to fixed dose week 9, minimum",fixed dose week 9,−9.7
same,"Pain intensity percent change from baseline to fixed dose week 9, maximum",fixed dose week 9,42.9%
same,"Pain intensity percent change from baseline to fixed dose week 9, mean (SD)",fixed dose week 9,−47.4 (34.17) %
same,"Pain intensity percent change from baseline to fixed dose week 9, median",fixed dose week 9,−53.3%
same,"Pain intensity percent change from baseline to fixed dose week 9, minimum",fixed dose week 9,−100.0%
same,"Pain intensity actual value at fixed dose week 10, maximum",fixed dose week 10,10.0
same,"Pain intensity actual value at fixed dose week 10, mean (SD)",fixed dose week 10,4.0 (2.54)
same,"Pain intensity actual value at fixed dose week 10, median",fixed dose week 10,3.7
same,"Pain intensity actual value at fixed dose week 10, minimum",fixed dose week 10,0.0
same,"Pain intensity change from baseline to fixed dose week 10, maximum",fixed dose week 10,3.0
same,"Pain intensity change from baseline to fixed dose week 10, mean (SD)",fixed dose week 10,−3.6 (2.66)
same,"Pain intensity change from baseline to fixed dose week 10, median",fixed dose week 10,−3.7
same,"Pain intensity change from baseline to fixed dose week 10, minimum",fixed dose week 10,−9.7
same,"Pain intensity percent change from baseline to fixed dose week 10, maximum",fixed dose week 10,42.9%
same,"Pain intensity percent change from baseline to fixed dose week 10, mean (SD)",fixed dose week 10,−46.8 (33.72) %
same,"Pain intensity percent change from baseline to fixed dose week 10, median",fixed dose week 10,−52.0%
same,"Pain intensity percent change from baseline to fixed dose week 10, minimum",fixed dose week 10,−100.0%
same,"Pain intensity actual value at fixed dose week 11, maximum",fixed dose week 11,10.0
same,"Pain intensity actual value at fixed dose week 11, mean (SD)",fixed dose week 11,3.9 (2.57)
same,"Pain intensity actual value at fixed dose week 11, median",fixed dose week 11,3.3
same,"Pain intensity actual value at fixed dose week 11, minimum",fixed dose week 11,0.0
same,"Pain intensity change from baseline to fixed dose week 11, maximum",fixed dose week 11,3.0
same,"Pain intensity change from baseline to fixed dose week 11, mean (SD)",fixed dose week 11,−3.7 (2.70)
same,"Pain intensity change from baseline to fixed dose week 11, median",fixed dose week 11,−4.0
same,"Pain intensity change from baseline to fixed dose week 11, minimum",fixed dose week 11,−9.7
same,"Pain intensity percent change from baseline to fixed dose week 11, maximum",fixed dose week 11,42.9%
same,"Pain intensity percent change from baseline to fixed dose week 11, mean (SD)",fixed dose week 11,−48.2 (34.19) %
same,"Pain intensity percent change from baseline to fixed dose week 11, median",fixed dose week 11,−55.6%
same,"Pain intensity percent change from baseline to fixed dose week 11, minimum",fixed dose week 11,−100.0%
same,"Pain intensity actual value at fixed dose week 12, maximum",fixed dose week 12,10.0
same,"Pain intensity actual value at fixed dose week 12, mean (SD)",fixed dose week 12,4.0 (2.53)
same,"Pain intensity actual value at fixed dose week 12, median",fixed dose week 12,3.7
same,"Pain intensity actual value at fixed dose week 12, minimum",fixed dose week 12,0.0
same,"Pain intensity change from baseline to fixed dose week 12, maximum",fixed dose week 12,3.0
same,"Pain intensity change from baseline to fixed dose week 12, mean (SD)",fixed dose week 12,−3.5 (2.65)
same,"Pain intensity change from baseline to fixed dose week 12, median",fixed dose week 12,−3.7
same,"Pain intensity change from baseline to fixed dose week 12, minimum",fixed dose week 12,−9.7
same,"Pain intensity percent change from baseline to fixed dose week 12, maximum",fixed dose week 12,42.9%
same,"Pain intensity percent change from baseline to fixed dose week 12, mean (SD)",fixed dose week 12,−46.2 (33.60) %
same,"Pain intensity percent change from baseline to fixed dose week 12, median",fixed dose week 12,−52.0%
same,"Pain intensity percent change from baseline to fixed dose week 12, minimum",fixed dose week 12,−100.0%
